According to patent US5591758A, “Organic nitrates, processes for their preparation and their use in the treatment of cardiovascular diseases” (Laboratoires Hoechst, SA, priority 1991, dated 1997):
Several values for one entry are separate records, joined by “and”; a condition that tells them apart may be missing. Identical values can stand only once. Counter-ions that a name gives are not always drawn.

System: anaesthetised dogs
Experiment: Tachyphylaxis model on anaesthetised dogs (repeated i.d. administration)
Assay type: in vivo, dogs (labrador/harrier cross)
Set-up: Δdp/dt average / ΔBPs / ΔBPd / ΔLVEDP / ΔHR / ΔBPs average / ΔBPd average / ΔLVEDP average / ΔHR average: unit not given here
Conditions: for Δdp/dt / ΔBPd / ΔBPs / ΔHR / ΔLVEDP: single dog
Experimental: Comparison with isosorbide mononitrate (IS-5-MN).
The product (46) is tested in a tachyphylaxis model on anaesthetised dogs. IS-5-MN is used as reference substance.
8 dogs of each sex, weighing between 16 and 24 kg, are used. These dogs are the progeny of a labrador/harrier cross. Anaesthesia is induced with the aid of sodium pentobarbital (45 mg/kg i.v.) and maintained by i.v. perfusion (flow rate: 8 mg/kg/h). The animals are ventilated, with the aid of a "Bird Mark 7" respirator, using ambient air, and catheterised. […] The arterial blood gases are measured at regular intervals.
IS-5-MN is also dissolved in water and given i.d. in a dosage of 5 mg/kg in a volume of 10 ml/animal.
Three hours (in the case of IS-5-MN) or four hours (in the case of (46)) after the first administration, the compounds are readministered in the same dosage and by the same route. The haemodynamic parameter chosen for the study of the tachyphylaxis is the systolic blood pressure (BPs), insofar as this parameter is very sensitive to the administration of the compounds.

[1] = i.d., IS-5-MN 5 mg/kg, (46) 0.75 mg/kg
[2] = n = 4, 1st administration, 0.75 mg/kg i.d., 5 min
[3] = n = 4, 1st administration, 0.75 mg/kg i.d., 10 min
[4] = n = 4, 1st administration, 0.75 mg/kg i.d., 15 min
[5] = n = 4, 1st administration, 0.75 mg/kg i.d., 30 min
[6] = n = 4, 1st administration, 0.75 mg/kg i.d., 60 min
[7] = n = 4, 1st administration, 0.75 mg/kg i.d., 120 min
[8] = n = 4, 1st administration, 0.75 mg/kg i.d., 180 min
[9] = n = 4, 1st administration, 0.75 mg/kg i.d., 240 min
[10] = n = 4, 2nd administration, 0.75 mg/kg i.d., 5 min
[11] = n = 4, 2nd administration, 0.75 mg/kg i.d., 10 min
[12] = n = 4, 2nd administration, 0.75 mg/kg i.d., 15 min
[13] = n = 4, 2nd administration, 0.75 mg/kg i.d., 30 min
[14] = n = 4, 2nd administration, 0.75 mg/kg i.d., 60 min
[15] = n = 4, 2nd administration, 0.75 mg/kg i.d., 120 min
[16] = 1st administration, 0.75 mg/kg i.d., 5 min, monohydrochloride, 0.75 mg/kg
[17] = 1st administration, 0.75 mg/kg i.d., 10 min, monohydrochloride, 0.75 mg/kg
[18] = 1st administration, 0.75 mg/kg i.d., 15 min, monohydrochloride, 0.75 mg/kg
[19] = 1st administration, 0.75 mg/kg i.d., 30 min, monohydrochloride, 0.75 mg/kg
[20] = 1st administration, 0.75 mg/kg i.d., 60 min, monohydrochloride, 0.75 mg/kg
[21] = 1st administration, 0.75 mg/kg i.d., 120 min, monohydrochloride, 0.75 mg/kg
[22] = 1st administration, 0.75 mg/kg i.d., 180 min, monohydrochloride, 0.75 mg/kg
[23] = 1st administration, 0.75 mg/kg i.d., 240 min, monohydrochloride, 0.75 mg/kg
[24] = 2nd administration, 0.75 mg/kg i.d., 5 min
[25] = 2nd administration, 0.75 mg/kg i.d., 5 min, monohydrochloride, 0.75 mg/kg
[26] = 2nd administration, 0.75 mg/kg i.d., 10 min
[27] = 2nd administration, 0.75 mg/kg i.d., 10 min, monohydrochloride, 0.75 mg/kg
[28] = 2nd administration, 0.75 mg/kg i.d., 15 min, monohydrochloride, 0.75 mg/kg
[29] = 2nd administration, 0.75 mg/kg i.d., 30 min, monohydrochloride, 0.75 mg/kg
[30] = 2nd administration, 0.75 mg/kg i.d., 60 min, monohydrochloride, 0.75 mg/kg
[31] = 2nd administration, 0.75 mg/kg i.d., 120 min, monohydrochloride, 0.75 mg/kg

O=C(CNC(=O)[C@@H]1CSCN1)N[C@H]1CO[C@H]2[C@@H]1OC[C@@H]2O[N+](=O)[O-] [Compound 46, 5-[[2-[[(4-L-Thiazolidinyl)carbonyl]amino]-1oxoethyl]amino]-5-deoxy-2-O-nitro-1,4:3,6-dianhydro-L-iditol monohydrochloride]
fall in the BPs, first administration, on average (0.75 mg/kg i.d.): -30 mmHg
period of action (compared with IS-5-MN, first administration): longer
development of tachyphylaxis after repeated administration (dogs, two i.d. administrations): absence of the development of tachyphylaxis
maximum fall in the BP after second administration [1]: -33 mmHg
time of maximum effect on BPs after first administration [1]: 60 min
time of maximum fall in the BP after second administration [1]: 60 min
ΔBPd average [2]: -4
ΔBPs average [2]: -5
ΔHR average [2]: -1
ΔLVEDP average [2]: -0
Δdp/dt average [2]: 0
ΔBPd average [3]: -11
ΔBPs average [3]: -18
ΔHR average [3]: -1
ΔLVEDP average [3]: -2
Δdp/dt average [3]: -100
ΔBPd average [4]: -16
ΔBPs average [4]: -26
ΔHR average [4]: -1
ΔLVEDP average [4]: -2
Δdp/dt average [4]: -125
ΔBPd average [5]: -20
ΔBPs average [5]: -30
ΔHR average [5]: -2
ΔLVEDP average [5]: -2
Δdp/dt average [5]: -150
ΔBPd average [6]: -20
ΔBPs average [6]: -33
ΔHR average [6]: -8
ΔLVEDP average [6]: -3
Δdp/dt average [6]: -200
ΔBPd average [7]: -20
ΔBPs average [7]: -31
ΔHR average [7]: -10
ΔLVEDP average [7]: -4
Δdp/dt average [7]: -250
ΔBPd average [8]: -15
ΔBPs average [8]: -24
ΔHR average [8]: -6
ΔLVEDP average [8]: -4
Δdp/dt average [8]: -150
ΔBPd average [9]: -7
ΔBPs average [9]: -12
ΔHR average [9]: 0
ΔLVEDP average [9]: -4
Δdp/dt average [9]: 25
ΔBPd average [10]: -5
ΔBPs average [10]: -6
ΔHR average [10]: 0
ΔLVEDP average [10]: 0
Δdp/dt average [10]: -50
ΔBPd average [11]: -6
ΔBPs average [11]: -11
ΔHR average [11]: 0
ΔLVEDP average [11]: 0
Δdp/dt average [11]: -75
ΔBPd average [12]: -10
ΔBPs average [12]: -18
ΔHR average [12]: -1
ΔLVEDP average [12]: 0
Δdp/dt average [12]: -125
ΔBPd average [13]: -15
ΔBPs average [13]: -25
ΔHR average [13]: -1
ΔLVEDP average [13]: -1
Δdp/dt average [13]: -225
ΔBPd average [14]: -19
ΔBPs average [14]: -33
ΔHR average [14]: -4
ΔLVEDP average [14]: -2
Δdp/dt average [14]: 350
ΔBPd average [15]: -15
ΔBPs average [15]: -26
ΔHR average [15]: -2
ΔLVEDP average [15]: -2
Δdp/dt average [15]: -275
Δdp/dt (1st administration, 0.75 mg/kg i.d., 5 min): 0
ΔBPd [16]: -5 and 0
ΔBPs [16]: -5 and -10 and 0
ΔHR [16]: 0 and -5
ΔLVEDP [16]: 0 and -1
Δdp/dt (1st administration, 0.75 mg/kg i.d., 10 min): -100
ΔBPd [17]: -10 and -15
ΔBPs [17]: -15 and -20
ΔHR [17]: 0 and -5
ΔLVEDP [17]: -2 and 0 and -3
ΔBPd [18]: -15 and -20
ΔBPs [18]: -25 and -20 and -35
ΔHR [18]: 0 and -5
ΔLVEDP [18]: -3 and -2 and 1
Δdp/dt [18]: -100 and -200
ΔBPd [19]: -20 and -15 and -25
ΔBPs [19]: -30 and -20 and -40
ΔHR [19]: -5 and 0
ΔLVEDP [19]: -4 and -2 and 1
Δdp/dt [19]: -100 and -200
ΔBPd [20]: -20 and -25 and -10
ΔBPs [20]: -30 and -35 and -15 and -50
ΔHR [20]: -10 and -5
ΔLVEDP [20]: -3 and -2 and -4
Δdp/dt [20]: -200 and -300 and 0
ΔBPd [21]: -20 and -25 and -10
ΔBPs [21]: -30 and -35 and -15 and -45
ΔHR [21]: -15 and 5
ΔLVEDP [21]: -2 and -6 and -4
Δdp/dt [21]: -200 and -300
ΔBPd [22]: -20 and -5 and -15
ΔBPs [22]: -25 and -30 and -10
ΔHR [22]: -10 and -15 and 10
ΔLVEDP [22]: -3 and -2 and -7 and -4
Δdp/dt [22]: -200 and -300 and -100 and 0
ΔBPd [23]: -10 and -20 and 0
ΔBPs [23]: -15 and -20 and 0
ΔHR [23]: -5 and -10 and 0 and 15
ΔLVEDP [23]: -4 and -3 and -7
Δdp/dt [23]: -100 and 0 and 300
ΔBPd [24]: -5
ΔHR [24]: 0
ΔBPs [25]: -5 and -10
ΔLVEDP [25]: 0 and 1
Δdp/dt [25]: 0 and -100
ΔHR [26]: 0
ΔLVEDP [26]: 0
ΔBPd [27]: -10 and -5
ΔBPs [27]: -15 and -5 and -10
Δdp/dt [27]: 0 and -100 and -200
ΔBPd [28]: -15 and -10 and -5
ΔBPs [28]: -20 and -15
ΔHR [28]: -5 and 0
ΔLVEDP [28]: -1 and 2 and 0
Δdp/dt [28]: -100 and 0 and -300
ΔBPd [29]: -15 and -10 and -25
ΔBPs [29]: -25 and -20 and -35
ΔHR [29]: 0 and -5
ΔLVEDP [29]: -1 and 0 and -2
Δdp/dt [29]: -100 and -600
ΔBPd [30]: -15 and -10 and -35
ΔBPs [30]: -30 and -20 and -50
ΔHR [30]: -5 and -10 and 0
ΔLVEDP [30]: -1 and -3
Δdp/dt [30]: -100 and -200 and -900
ΔBPd [31]: -10 and -15 and -25
ΔBPs [31]: -20 and -30 and -35
ΔHR [31]: 0 and -15 and 5
ΔLVEDP [31]: -1 and -2 and -3
Δdp/dt [31]: -100 and -200 and -600
